Test results as given in patent publication US20160067232A1, “METHODS FOR TREATING A STROKE-RELATED SENSORIMOTOR IMPAIRMENT USING AMINOPYRIDINES” (Acorda Therapeutics, Inc., priority 2011, published 2016).
Several values for one entry are separate records, joined by “and”; a condition that tells them apart may be missing. Identical values can stand only once.

Assays:
[1] = typical; also printed as 94 ng/mL^−1; cited from earlier work
[2] = test system: rats with middle cerebral artery occlusion (MCAO); experiment: Hindlimb placing test, MCAO rats, double crossover study (Example 2); type: in vivo, Sprague Dawley rat; set-up: Hindlimb Placing Total Score, individual animals / Hindlimb Placing Total Score, Mean: scale not given here; details: for Hindlimb Placing Total Score, individual animals: one value per rat; for Hindlimb Placing Total Score, Mean: N 15
Procedure: 4-AP was evaluated for its ability to promote functional sensorimotor improvement following ischemic stroke in rats with stable motor deficits at times remote from their ischemic events. The animal model mimics the conditions in human ischemic stroke and is produced by middle cerebral artery occlusion (MCAO), which results in extensive infarction in cerebral cortex and striatum, including the cortical spinal tract (white matter).
In particular, the MCAO model in Sprague Dawley rats that was utilized in the experiments presented below mimics the conditions in human ischemic stroke. In this model, focal cerebral infarcts were made by permanent occlusion of the proximal right middle cerebral artery (MCA) using a modification of the method of Tamura et al. (No To Shinkei 1986; 38:747-51). Briefly, the temporalis muscle was bisected and reflected through an incision made midway between the eye and the ear canal. The proximal MCA was exposed through a subtemporal craniectomy without removing the zygomatic arch and without transecting the facial nerve.
Dosing and Treatment: Rats were treated in accordance with the dosing schedule shown in Tables 2A, 2B, 3 and FIG. 2, with each Phase being a two week period of time. A solution of 4-AP was used in this experiment. Dosing was started at 4 weeks after ischemic event. 4-aminopyridine was dissolved in water for injection (WFI, Cellgro) and sterile filtered. Final concentrations of 0.315 mg/mL or 1.0 mg/mL of 4-aminopyridine were delivered at 2 mL/kg by gastric gavage, resulting in final doses of 0.63 mg/kg and 2 mg/kg respectively. Vehicle control treatment was WFI delivered at 2 mL/kg by gastric gavage. This study was divided into three treatment phases (1-3) with each randomized cohort of animals receiving a different dose level during each of the treatment phases. Starting on day 30 after MCAO (Day 30, start of phase 1), the animals received gavage dosing of solutions (2 mL/kg) approximately 12 hours apart, for a total of five doses. The same schedule was repeated with different treatment on Day 44 and Day 58 for phase 2 and 3 of the study, respectively. Animals were not treated during the 10 days between phases (washout period).
Treatment groups: Dosing was started 4 weeks after MCAO surgery. During these 4 weeks, weekly behavioral assessments, as defined below, were performed. Two dose levels of 4-AP plus vehicle control were assessed, with treatment starting at 4 weeks after ischemic event. All dosing was via gastric gavage, volume not to exceed 2 mL/kg. Animals were given the first dose and behavioral assessments were performed starting 60 minutes after dosing. Animals then received the second dose that day at the appropriate time and b.i.d (preferably every 12 hours) thereafter for 2 more days (3 total days of dosing, 5 total doses). One hour after the 5th dose, animals were subjected to behavioral assessments as defined below. Following the final behavioral assessment, drug was withdrawn for 10 or 11 days, behavior was re-assessed, and then animals were re-challenged with a cross-over treatment (Phase 2 of Table 2B) as described in Tables 2A, 2B and 3, followed by the same behavioral testing and dosing regimen. This cross-over was repeated one more time as well (Phase 3 of Table 2B) (see FIG. 2).
Behavioral test details: Behavioral evaluations were done by evaluators blinded to treatment assignment. Blinded assessments of sensorimotor function were performed just prior to MCAO surgery, 24 hours after MCAO surgery and weekly thereafter until the first phase of dosing using limb placing and body swing behavioral tests. As described above, behavioral assessments were timed exactly with dosing times. Animals were tested one hour after the 1st and 5th doses of each phase (i.e., Days 30 and 32 of the first phase, Days 44 and 46 of the second phase; and Days 58 and 60 of the third phase); animals were also tested during the washout periods on Days 42 and 56. […]

[3] = Group 3 (sequence vhl), D44 after MCAO, phase 2, high dose
[4] = Group 3 (sequence vhl), D46 after MCAO, phase 2, high dose
[5] = Group 3 (sequence vhl), D58 after MCAO, phase 3, low dose
[6] = Group 3 (sequence vhl), D60 after MCAO, phase 3, low dose

## Nc1ccncc1 [4-aminopyridine]
[1]
  4-AP plasma concentrations obtained in clinical studies: < 1 µM
[2]; 0.63 mg/kg b.i.d. p.o., first mixed model, p=0.0027
  Hindlimb function, low dose compared to vehicle: significantly improved the hindlimb function
[2]; 2 mg/kg b.i.d. p.o., first mixed model, p<0.0001
  Hindlimb function, high dose compared to vehicle: significantly improved the hindlimb function
[2]; Group 2 (sequence lvh), D30 after MCAO, phase 1, low dose
  Hindlimb Placing Total Score, individual animals: 2.50 and 1.50 (6×) and 2.00 (5×) and 1.00 and 0.50 and 3.00
[2]; Group 2 (sequence lvh), D32 after MCAO, phase 1, low dose
  Hindlimb Placing Total Score, individual animals: 2.00 (2×) and 1.00 (4×) and 1.50 (8×) and 0.50
[2]; Group 2 (sequence lvh), D58 after MCAO, phase 3, high dose
  Hindlimb Placing Total Score, individual animals: 2.00 (2×) and 0.00 (5×) and 1.00 and 1.50 (4×) and 0.50 (3×)
[2]; Group 2 (sequence lvh), D60 after MCAO, phase 3, high dose
  Hindlimb Placing Total Score, individual animals: 0.50 (5×) and 0.00 (9×) and 1.00
[2]; [3]
  Hindlimb Placing Total Score, Mean: 0.90
  Hindlimb Placing Total Score, individual animals: 2.00 (2×) and 0.00 (3×) and 1.50 and 1.00 (2×) and 0.50 (2×)
[2]; [4]
  Hindlimb Placing Total Score, Mean: 0.30
  Hindlimb Placing Total Score, individual animals: 1.00 and 0.00 (6×) and 0.50 (3×)
[2]; [5]
  Hindlimb Placing Total Score, Mean: 0.80
  Hindlimb Placing Total Score, individual animals: 1.50 and 0.50 (3×) and 1.00 (3×) and 3.00 and 0.00 (2×)
[2]; [6]
  Hindlimb Placing Total Score, Mean: 0.70
  Hindlimb Placing Total Score, individual animals: 1.50 and 1.00 (3×) and 0.50 (2×) and 2.00 and 0.00 (3×)
[2]; low or high dose, 4 weeks post ischemic brain injury, dose responsive, reversible
  Effect on hindlimb function (FIGS. 4A-D): effective to improve hindlimb function
